Assay results from patent publication US7090861B2, “Sustained release delivery systems for solutes” (Farrington Pharmaceuticals, LLC, priority 2000, dated 2006).
Where two headings read alike, the source gives them in different places.

Assays:
[1] = cited from earlier work
[2] = Cumulative release of albumin from a controlled-release device; format: physicochemical
Description: Bovine serum albumin (MW 68,000) was dissolved in phosphate buffered saline and loaded into a device designed to deliver a loading dose. After an initial burst release, the rate becomes constant. Data are plotted as the cumulated delivery of albumin over time, measured as described for FIG. 5. Approximately 10 mg was delivered in 24 hours.

Compound	absorption, share of the total ([1]; ileum) [%]	absorption, share of the total ([1]; jejunum) [%]	absorption, share of the total ([1]; stomach) [%]	release kinetics of albumin ([2]; after an initial burst release)	cumulated delivery of albumin ([2]; in 24 hours, device designed to deliver a loading dose)
[Ca+2] [calcium]	60	20	< 2		
Bovine serum albumin: Bovine serum albumin (MW 68,000) in phosphate buffered saline, loaded into a device designed to deliver a loading dose				zero order rate release of albumin over a duration of 24 hours	Approximately 10 mg
